According to patent US7666874B2, “Pyrimidylaminobenzamide derivatives for hypereosinophilic syndrome” (Novartis AG, priority 2005, dated 2010):

How the values were obtained:
[1] = biological target: T1, Ba/F3 Tel-PDGFRβ cells (Homo sapiens, UniProt P09619); experiment: IL-3 independence cell proliferation assay (ATPLite), Ba/F3 Tel-PDGFRβ; assay type: cell-based
T1 construct: TEL-PDGFRβ, TEL-PDGFRβ T681I, and TEL-FGFR3 [T/F] are cloned in MSCV-neomycin [MSCV-neo]; fused on or other part: P41212 (Transcription factor ETV6)
T1 sequence (P09619 whole entry, stated change not applied, the tested form may be a part): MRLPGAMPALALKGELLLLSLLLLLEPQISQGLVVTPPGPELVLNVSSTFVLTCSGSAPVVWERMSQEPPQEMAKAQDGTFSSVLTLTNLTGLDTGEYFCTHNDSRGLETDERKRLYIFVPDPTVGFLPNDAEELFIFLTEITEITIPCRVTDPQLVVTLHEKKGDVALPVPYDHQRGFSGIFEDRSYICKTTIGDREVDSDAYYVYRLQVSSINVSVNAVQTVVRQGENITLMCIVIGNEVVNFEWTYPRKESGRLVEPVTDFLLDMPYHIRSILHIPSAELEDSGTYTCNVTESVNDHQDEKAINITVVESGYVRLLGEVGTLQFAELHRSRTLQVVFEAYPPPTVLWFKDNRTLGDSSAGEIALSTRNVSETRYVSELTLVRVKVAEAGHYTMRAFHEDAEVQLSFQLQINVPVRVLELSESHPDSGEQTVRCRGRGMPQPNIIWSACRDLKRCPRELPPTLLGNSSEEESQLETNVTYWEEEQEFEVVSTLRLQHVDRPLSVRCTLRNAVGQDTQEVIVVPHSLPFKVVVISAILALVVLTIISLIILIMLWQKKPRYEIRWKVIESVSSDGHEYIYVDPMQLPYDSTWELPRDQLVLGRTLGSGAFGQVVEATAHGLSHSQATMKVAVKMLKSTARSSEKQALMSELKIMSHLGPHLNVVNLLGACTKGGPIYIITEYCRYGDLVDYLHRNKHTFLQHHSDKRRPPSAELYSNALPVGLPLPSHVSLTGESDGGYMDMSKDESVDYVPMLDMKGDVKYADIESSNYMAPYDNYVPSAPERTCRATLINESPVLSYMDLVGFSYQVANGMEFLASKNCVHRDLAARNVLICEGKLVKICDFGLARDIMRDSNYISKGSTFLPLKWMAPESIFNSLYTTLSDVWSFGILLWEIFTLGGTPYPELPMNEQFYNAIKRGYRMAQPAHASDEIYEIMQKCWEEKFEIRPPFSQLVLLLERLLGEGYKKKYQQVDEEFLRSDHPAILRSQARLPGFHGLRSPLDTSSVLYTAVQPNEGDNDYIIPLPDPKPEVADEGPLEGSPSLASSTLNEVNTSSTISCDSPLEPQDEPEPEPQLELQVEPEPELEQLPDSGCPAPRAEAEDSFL
Procedure: (§6) TEL-PDGFRβ [T/P], FIP1L1-PDGFRα [F/P], and FIP1L1-PDGFRα T6741 cloned in MSCV-IRES-GFP [MSCV-GFP], and TEL-PDGFRβ, TEL-PDGFRβ T681I, and TEL-FGFR3 [T/F] are cloned in MSCV-neomycin [MSCV-neo].
(§7) Ba/F3 cells are cultured in RPMI 1640 (RPMI)+10% FBS+1 ng/mL mouse interleukin (IL)-3. Retroviral supernatants are generated and used to transduce Ba/F3 cells. T/P MSCV-neo and T/F MSCV-neo cell lines are selected with 1 mg/mL G418 in the presence of IL-3 for 8-10 days. F/P MSCV-GFP cell lines are selected in RPMI lacking IL-3 for 7-10 days. […] Transformed Ba/F3 cells are grown in RPMI lacking IL-3.
(§8) The effects of compounds on viability and proliferation of the cells were determined using the luminescent ATP Detection assay kit ATPLite™ from Perkin Elmer Life Sciences (Cat. No: 6016947) according to the instructions of the suppliers. This assay system is based on the production of light (luminescence) caused by the reaction of ATP with added luciferase and D-luciferin. […]
(§9) The effect of the compound was expressed as percent reduction of the control signal. The TGI50 values were determined from the dose response curves by graphical extrapolation.

[2] = biological target: T2, Ba/F3 cells transformed by TEL-PDGFRβ T681I mutant (Homo sapiens, UniProt P09619, T681I); experiment: Proliferation of Ba/F3 cells transformed by TEL-PDGFRβ T681I mutant; assay type: cell-based; conditions: Ba/F3 cells transformed with TEL-PDGFRβ T681I mutant
T2 construct: TEL (ETV6) portion (fusion partner); expressed in transfected cells; host or cells: Ba/F3 cells (retroviral transduction, MSCV-neo); the other entry of the earlier key: ETV6 (P41212, Transcription factor ETV6)
T2 sequence (P09619 554-1106 T681I limits assumed): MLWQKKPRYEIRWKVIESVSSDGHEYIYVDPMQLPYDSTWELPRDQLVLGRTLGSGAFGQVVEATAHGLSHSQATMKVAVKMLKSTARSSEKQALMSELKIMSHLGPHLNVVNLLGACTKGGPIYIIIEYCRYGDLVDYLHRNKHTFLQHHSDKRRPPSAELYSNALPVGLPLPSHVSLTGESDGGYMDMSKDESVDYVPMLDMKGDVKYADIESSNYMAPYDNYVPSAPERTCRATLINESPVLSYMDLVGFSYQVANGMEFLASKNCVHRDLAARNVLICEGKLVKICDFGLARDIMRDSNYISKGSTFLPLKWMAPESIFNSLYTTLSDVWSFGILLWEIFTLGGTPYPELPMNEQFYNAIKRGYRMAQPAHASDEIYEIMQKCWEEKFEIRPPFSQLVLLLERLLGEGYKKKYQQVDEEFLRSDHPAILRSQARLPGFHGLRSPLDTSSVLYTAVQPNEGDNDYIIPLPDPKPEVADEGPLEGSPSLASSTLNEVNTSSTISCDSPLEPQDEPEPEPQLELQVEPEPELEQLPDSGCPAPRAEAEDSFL
Procedure: as §6, §7, §8, §9

[3] = test system: TEL-PDGFRβ; experiment: Western blot of TEL-PDGFRβ phosphorylation and signaling intermediates in Ba/F3 cells; assay type: cell-based
Procedure: For T/P: Ba/F3 cells stably expressing T/P or T/F are treated with serum starvation in plain RPMI 1640 for 4 hours prior to lysis. The cell extracts are clarified by centrifugation and used for immunoprecipitation or immunoblotting. The enzyme-linked immunoblotting procedures are performed as described. Applied antibodies include: rabbit anti-PDGFRβ serum (Pharmingen); rabbit anti-PI3K (p85) serum; mouse anti-phosphotyrosine 4G10 (Upstate Biotechnology); antibodies against FGFR3, phospho-PI3K p85 (Tyr-508) (Santa Cruz Biotechnology); PLCγ, phospho-PLCγ (Tyr-783) (Cell Signaling).

[4] = test system: TEL-PDGFRβ; experiment: Murine bone marrow transplant model of TEL-PDGFRβ-induced myeloproliferative disease; assay type: in vivo, mouse (Balb/C); conditions: TEL-PDGFRβ transplanted mice
Procedure: (§1) Murine bone marrow transplant experiments are performed as previously described. MSCV-GFP retroviral supernatants are titered by transducing Ba/F3 cells with supernatant (plus polybrene, 10 μg/mL) and analyzing for the percentage of GFP+ cells by flow cytometry at 48 h post-transduction. Balb/C donor mice (Taconic) are treated for 5-6 days with 5-fluorouracil (150 mg/kg, intraperitoneal injection). Bone marrow cells from donor mice are harvested, treated with red blood cell lysis buffer, and cultured 24 h in transplant medium (RPMI+10% FBS+6 ng/mL IL-3, 10 ng/mL IL-6, and 10 ng/mL stem cell factor). Cells are treated by spin infection with retroviral supernatants (1 mL supernatant per 4×10^6 cells, plus polybrene) and centrifuged at 2500 rpm for 90 min. 24 h later, the spin infection is repeated, then cells are washed, resuspended in Hank's balanced salt solution, and injected into lateral tail veins of lethally irradiated (2×450 rad) Balb/C recipient mice (Taconic) at 0.5-1×10^6 cells/mouse. […] Animals are sacrificed when they had palpable splenomegaly or were moribund, or, if healthy, 7 days after sacrifice of the last animal in the placebo group.
(§2) Peripheral blood is collected from the retroorbital cavity using heparinized glass capillary tubes and analyzed by automated complete and differential blood cell counts and smears (stained with Wright and Giemsa). Single cell suspensions of spleen and bone marrow are prepared by pressing tissue through a cell strainer, followed by red blood cell lysis. Cells are frozen in 90% FBS, 10% DMSO.
(§3) For histopathology, tissues are fixed for at least 72 h in 10% neutral buffered formalin, dehydrated in alcohol, cleared in xylene, and infiltrated with paraffin on an automated processor (Leica). The tissue sections (4 μm) from paraffin-embedded tissue blocks are placed on charged slides and deparaffinized in xylene, rehydrated through graded alcohol solutions, and stained with hematoxylin and eosin.
(§4) For flow cytometry, cells are washed in PBS+1% bovine serum albumin (BSA), blocked with Fc-Block (BD Pharmingen) for 10 min on ice, and stained with monoclonal antibodies in PBS+1% BSA for 20 min on ice. Antibodies used are: allophycocyanin (APC)-conjugated Gr1, CD19, and TCRB; and phycoethrin (PE)-conjugated Mac-1, B220, and CD3 (BD Pharmingen). Flow cytometric analysis is performed on a FACSCalibur instrument and analyzed with CellQuest software. Viability is assessed by incubating cells with 7AAD (BD Pharmingen) for 5 min prior to flow cytometry. Cells are gated for viability (using forward/side scatter and 7AAD) and GFP positivity, and 10,000 events are analyzed from this subset for marker expression.
Statistical significance of differences between Compound (II)- and placebo-treated groups in survival time, white blood cell counts, and spleen weights are assessed using a two-sided Mann-Whitney U-test (Wilcoxon rank sum test).
A murine bone marrow transplant protocol is used to model myeloproliferative disease caused by TEL-PDGFRβ and FIP1L1-PDGFRα. Retroviral transduction of these fusion kinases into bone marrow cells of 5FU-treated donor mice, followed by transplantation into lethally irradiated recipients, produces a rapidly fatal myeloproliferative phenotype characterized by leukocytosis with myeloid predominance, splenomegaly, and extramedullary hematopoiesis.
(§5) Donor bone marrow cells are transduced with a murine retroviral vector expressing TEL-PDGFRβ or FIP1L1-PDGFRα and transplanted into recipients.

[5] = biological target: T3, FIP1L1-PDGFRα (Homo sapiens, UniProt P16234); experiment: Murine bone marrow transplant model of FIP1L1-PDGFRα-induced myeloproliferative disease; assay type: in vivo, mouse (Balb/C); conditions: FIP1L1-PDGFRα transplanted mice
T3 construct: FIP1L1 portion (fusion partner); expressed in transfected cells; host or cells: Balb/C mouse donor bone marrow cells (retroviral transduction, MSCV-GFP), transplanted into Balb/C recipients; the other entry of the earlier key: FIP1L1 (Q6UN15, Pre-mRNA 3'-end-processing factor FIP1)
T3 sequence (P16234 593-1089 limits assumed): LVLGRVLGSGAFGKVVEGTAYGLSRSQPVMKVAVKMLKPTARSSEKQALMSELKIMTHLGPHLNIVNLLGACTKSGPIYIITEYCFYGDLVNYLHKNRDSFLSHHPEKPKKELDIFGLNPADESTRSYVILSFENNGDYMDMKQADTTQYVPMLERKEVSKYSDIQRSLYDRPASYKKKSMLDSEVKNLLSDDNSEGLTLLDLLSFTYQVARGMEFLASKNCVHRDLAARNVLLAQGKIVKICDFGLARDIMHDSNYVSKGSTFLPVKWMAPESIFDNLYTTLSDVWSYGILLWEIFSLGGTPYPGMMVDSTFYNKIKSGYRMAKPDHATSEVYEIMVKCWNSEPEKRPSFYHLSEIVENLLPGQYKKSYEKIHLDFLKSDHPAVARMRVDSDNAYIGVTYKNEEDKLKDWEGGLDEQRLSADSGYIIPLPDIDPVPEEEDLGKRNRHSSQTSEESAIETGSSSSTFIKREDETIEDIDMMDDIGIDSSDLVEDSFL
Procedure: as §1, §2, §3, §4
A murine bone marrow transplant protocol is used to model myeloproliferative disease caused by TEL-PDGFRβ and FIP1L1-PDGFRα.
as §5

[6] = daily oral gavage 150 mg/kg/day from day 11
[7] = daily oral gavage 150 mg/kg/day from day 11 after transplant

Structure (SMILES): Cc1cn(-c2cc(NC(=O)c3ccc(C)c(Nc4nccc(-c5cccnc5)n4)c3)cc(C(F)(F)F)c2)cn1 [Compound (II), 4-methyl-3-[[4-(3-pyridinyl)-2-pyrimidinyl]amino]-N-[5-(4-methyl-1H-imidazol-1-yl)-3-(trifluoromethyl)phenyl] benzamide]
- GI50 ([1]; Ba/F3 Tel-PDGFRβ cells, 70 h incubation, read-out: IC50, inhibition of proliferation): < 100 nM
- Inhibition of transformed Ba/F3 cells ([1]; Ba/F3 cells transformed with TEL-PDGFRβ): inhibited
- Inhibition of transformed Ba/F3 cells [2]: inhibited
- Phosphorylation of PDGFRβ signaling intermediates including PLCγ and PI3K [3]: effectively inhibited
- TEL-PDGFRβ tyrosine autophosphorylation [3]: effectively inhibited
- FACS analysis of spleen, B220+/CD19+ cells ([4]; compared to placebo): slightly increased percentage
- FACS analysis of spleen, Gr1+/Mac1+ cells ([4]; compared to placebo): consistently reduced percentage
- Histopathology of hematopoietic organs ([4]; compared to placebo): significantly less severe myeloproliferative disease
- Liver weight, Mean [4, 6]: 1492.5 mg
- Liver weight, Median [4, 6]: 1535 mg
- Liver weight, Range [4, 6]: 1320 to 1590 mg
- Spleen weight, Mean [4, 6]: 350.0 mg
- Spleen weight, Median [4, 6]: 340 mg
- Spleen weight, Range [4, 6]: 250 to 470 mg
- WBC, Median [4, 6]: 1.59e+07 mL⁻¹
- WBC, Range [4, 6]: 10.9-33.5 ×10^6/mL
- WBC, Mean [4, 7]: 1.86e+07 mL⁻¹
- Survival ([4]; placebo median latency 17 days, p<0.001): 26 days
- Total white blood cells (WBC) ([4]; vs 563.7 for placebo, p<0.05): 18.6 ×10^6 cells/mL
- Extramedullary hematopoiesis in liver ([5]; compared to placebo): notable absence of any extramedullary hematopoiesis
- Histopathology of spleen ([5]; compared to placebo): striking preservation of normal splenic architecture
- Liver weight, Mean [5, 6]: 1128.0 mg
- Liver weight, Median [5, 6]: 1090 mg
- Liver weight, Range [5, 6]: 1080 to 1290 mg
- Spleen weight, Mean [5, 6]: 88.0 mg
- Spleen weight, Median [5, 6]: 100 mg
- Spleen weight, Range [5, 6]: 50 to 100 mg
- WBC, Median [5, 6]: 4.7e+06 mL⁻¹
- WBC, Range [5, 6]: 4.0-9.6 ×10^6/mL
- WBC, Mean [5, 7]: 5.6e+06 mL⁻¹
- Survival: all treated animals alive and healthy until study termination ([5]; all placebo animals lost by day 24): ≥ 33 days
- Total WBC ([5]; vs 569.7 for placebo, p<0.01): 5.6 ×10^6 cells/mL
